Measured values taken from publication PMC6154719 (Molecules : A Journal of Synthetic Chemistry and Natural …, 2017).

Tests used:
Type in all cases: in vitro ADME
[1] = biological target: T1, CYP2A6 (Homo sapiens, UniProt P11509); assay: CYP2A6 coumarin 7-hydroxylation in human liver microsomes (HPLC); conditions: substrate coumarin, n = 2
T1 construct: other CYP-mediated activities in human liver microsomes; from tissue; host or cells: human liver microsomal fraction
Description: (§1) Enzyme activities were assayed in human and rat liver cytosolic and microsomal fractions. The enzyme assays (each performed in 4–8 replicates) were repeated three times (HPLC measurement of CYP activities was repeated only twice, Table 3). Inhibition studies were carried out by incubation of specific substrates in the presence of sesquiterpenes (in the range 0–100 µM).
(§2) Enzyme activities of individual CYP forms were measured according to established protocols. The following microsomal CYP activities were tested: CYP2A6, coumarin 7-hydroxylation; CYP2B6, 7-ethoxy-4-(trifluoromethyl)coumarin 7-deethylation, CYP2C9, diclofenac 4′-hydroxylation, CYP2C19 assay, S-mephenytoin 4′-hydroxylation, CYP2D6 on bufuralol 1′-hydroxylation, CYP2E1, chlorzoxazone 6-hydroxylation and CYP3A4, testosterone 6β-hydroxylation, and midazolam 1′-hydroxylation. Activities were measured using the Prominence HPLC system (Shimadzu, Kyoto, Japan), equipped with a LiChroCART 250-4 LiChrospher 100 RP-18 column or Chromolith®HighResolution RP-18 end-capped column (Merck, Darmstadt, Germany) and UV or fluorescence detection, according to the cited literature. […] CYP1A2, 7-ethoxyresorufin O-deethylation, and CYP3A4/2B6 (human), CYP2B1 (rat), benzyloxyresorufin O-debenzylation were measured using the microplate reader Tecan Infinite M200 (Tecan Group; Mannedorf, Switzerland). […]

[2] = biological target: T2, AKR1A (Rattus norvegicus, UniProt P51635); assay: AKR1A activity in rat liver subcellular fraction; conditions: 100 µM sesquiterpene, control 3.60 ± 0.13
T2 construct: Frozen liver (both rat and human) was thawed; from tissue; host or cells: rat liver cytosolic fraction
T2 sequence (P51635 1-325): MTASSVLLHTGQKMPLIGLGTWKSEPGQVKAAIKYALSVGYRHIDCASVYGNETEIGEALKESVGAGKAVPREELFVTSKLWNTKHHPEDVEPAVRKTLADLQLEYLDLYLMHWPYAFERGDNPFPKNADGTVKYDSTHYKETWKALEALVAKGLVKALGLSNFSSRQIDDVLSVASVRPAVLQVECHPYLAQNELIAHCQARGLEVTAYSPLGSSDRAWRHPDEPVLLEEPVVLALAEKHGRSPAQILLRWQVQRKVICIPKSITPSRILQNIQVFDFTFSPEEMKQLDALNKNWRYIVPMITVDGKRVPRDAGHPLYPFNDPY
Description: as §1
The assays of all other enzymes were based on spectrophotometric detection of product formed or detection of decreasing substrate/cofactor levels using microplate reader Tecan Infinite M200 in cytosolic or microsomal fractions. Enzyme activities were determined using slight modifications of previously-published methods: carbonyl reducing enzymes (AKR1A, AKR1C, CBR1 [45], NQO1 [46]), UDP-glucuronosyltransferase (UGT [47]), sulfotransferase (SULT [48]), and cytosolic glutathione-S-transferase (GST [49]).
(§3) Sesquiterpenes CNER, TNER and FAR, non-volatile liquids, were pipetted, and proper concentration was calculated according to density. All compounds were dissolved in DMSO. The final solvent concentration in the inhibition assays was 1%, which had no effect on the enzyme activity (data not shown). Non-enzymatic interference of sesquiterpenes with some compounds in the reaction mixtures (e.g., fluorescence enhancing or quenching) was considered and excluded. All experiments were performed in three replicates, if not stated otherwise.
(§4) CNER, TNER and FAR at a fixed concentration of 100 µM were screened for inhibition of cytosolic AKR1A1, AKR1C, CBR1, NQO1, SULT, and GST, and microsomal CYPs and UGT. The degree of inhibition caused by sesquiterpenes was compared with non-inhibited control reactions, which contained solvent without sesquiterpenes.

[3] = tested on: CYP2B/3A (CYP3A4/2B6, BROD activity); assay: CYP2B/3A (BROD activity, benzyloxyresorufin O-debenzylation) in human liver microsomes; conditions: probe benzyloxyresorufin (O-debenzylation), 0.5-5.0 µM; human liver microsomes, BROD activity
Description: as §1
(§5) Enzyme activities of individual CYP forms were measured according to established protocols. The following microsomal CYP activities were tested: CYP2A6, coumarin 7-hydroxylation; CYP2B6, 7-ethoxy-4-(trifluoromethyl)coumarin 7-deethylation, CYP2C9, diclofenac 4′-hydroxylation, CYP2C19 assay, S-mephenytoin 4′-hydroxylation, CYP2D6 on bufuralol 1′-hydroxylation, CYP2E1, chlorzoxazone 6-hydroxylation and CYP3A4, testosterone 6β-hydroxylation, and midazolam 1′-hydroxylation. Activities were measured using the Prominence HPLC system (Shimadzu, Kyoto, Japan), equipped with a LiChroCART 250-4 LiChrospher 100 RP-18 column or Chromolith®HighResolution RP-18 end-capped column (Merck, Darmstadt, Germany) and UV or fluorescence detection, according to the cited literature. Further incubation details are described either in the corresponding references, as well as in the papers from this laboratory e.g., [42, 43, 44]. CYP1A2, 7-ethoxyresorufin O-deethylation, and CYP3A4/2B6 (human), CYP2B1 (rat), benzyloxyresorufin O-debenzylation were measured using the microplate reader Tecan Infinite M200 (Tecan Group; Mannedorf, Switzerland).
as §3, §4
(§6) The concentration of sesquiterpenes required for 50% inhibition of enzyme activity, the IC50 value, was determined. Their final concentrations in the reaction mixture were proposed to cover the entire inhibitory range of these compounds (1–100 µM). The IC50 values for each sesquiterpene were determined by plotting sigmoidal dose response curves of specific enzyme activity vs. logarithm of sesquiterpene concentration using GraphPad Prism version 6.07 for Windows (GraphPad Software Inc., La Jolla, CA, USA).
(§7) The kinetic inactivation study of the CYP1A2 (EROD activity) and CYP2B/3A (BROD activity), both in rat and human, with TNER, was performed to find out the mechanism of enzyme inhibition by this sesquiterpene. Mechanism of EROD and BROD inhibition was tested at the final ethoxyresorufin or benzyloxyresorufin concentrations 0.5–5.0 µM. The concentration of TNER was 5.0 µM.
(§8) Experimental data were fitted to the Michaelis-Menten equation, basic kinetic parameters were determined using the program GraphPad Prism version 6.07 for Windows. The type of inhibition was estimated using a Lineweaver-Burk (double-reciprocal) plot.

[4] = tested on: CYP2B/3A (CYP2B1, BROD activity); assay: CYP2B/3A (BROD activity, benzyloxyresorufin O-debenzylation) in rat liver microsomes; conditions: probe benzyloxyresorufin (O-debenzylation), 0.5-5.0 µM; rat liver microsomes, BROD activity
Description: as §1, §5, §3, §4, §6, §7, §8

[5] = biological target: T3, CYP2C19 (Homo sapiens, UniProt P33261); assay: CYP2C19 S-mephenytoin 4′-hydroxylation in human liver microsomes (HPLC); conditions: substrate S-mephenytoin, n = 2
T3 construct: other CYP-mediated activities in human liver microsomes; from tissue; host or cells: human liver microsomal fraction
T3 sequence (P33261 whole entry): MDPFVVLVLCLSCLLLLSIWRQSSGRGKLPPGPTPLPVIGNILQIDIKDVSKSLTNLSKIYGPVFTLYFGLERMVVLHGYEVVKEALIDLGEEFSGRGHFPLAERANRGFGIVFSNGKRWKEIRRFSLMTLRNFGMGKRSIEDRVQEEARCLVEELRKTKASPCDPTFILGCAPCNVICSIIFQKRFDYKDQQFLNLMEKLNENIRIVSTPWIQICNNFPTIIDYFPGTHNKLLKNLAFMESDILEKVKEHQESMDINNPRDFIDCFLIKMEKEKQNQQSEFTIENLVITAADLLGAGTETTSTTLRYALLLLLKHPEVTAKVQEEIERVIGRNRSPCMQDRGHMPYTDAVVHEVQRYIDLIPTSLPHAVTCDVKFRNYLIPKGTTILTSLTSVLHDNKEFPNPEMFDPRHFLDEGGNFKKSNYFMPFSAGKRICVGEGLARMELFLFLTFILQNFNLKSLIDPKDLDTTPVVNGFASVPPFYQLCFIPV
Description: as §1, §2

[6] = tested on: CYP3A4/5; assay: CYP3A4/5 testosterone 6β-hydroxylation in human liver microsomes (HPLC); conditions: substrate testosterone, n = 2
Description: as §1, §5, §6

[7] = tested on: CYP3A4/5; assay: CYP3A4/5 midazolam 1′-hydroxylation in human liver microsomes (HPLC); conditions: substrate midazolam, n = 2
Description: as §1, §2

[8] = human, liver microsomes, probe testosterone

T1 sequence (P11509 whole entry): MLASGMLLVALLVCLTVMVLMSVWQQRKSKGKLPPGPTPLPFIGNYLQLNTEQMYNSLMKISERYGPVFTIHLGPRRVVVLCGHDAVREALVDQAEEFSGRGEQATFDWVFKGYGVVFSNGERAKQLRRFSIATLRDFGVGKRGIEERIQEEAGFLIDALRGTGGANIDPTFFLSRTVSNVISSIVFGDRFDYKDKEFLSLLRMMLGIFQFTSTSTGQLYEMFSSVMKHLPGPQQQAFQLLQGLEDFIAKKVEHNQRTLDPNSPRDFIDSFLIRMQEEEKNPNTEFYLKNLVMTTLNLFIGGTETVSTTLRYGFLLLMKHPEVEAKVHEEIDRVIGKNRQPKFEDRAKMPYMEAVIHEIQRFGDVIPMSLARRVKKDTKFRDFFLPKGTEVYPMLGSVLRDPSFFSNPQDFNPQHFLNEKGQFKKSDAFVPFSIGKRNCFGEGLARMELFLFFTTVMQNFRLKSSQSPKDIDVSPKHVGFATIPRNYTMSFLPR

SMILES: CC(C)=CCC/C(C)=C/CC/C(C)=C/CO [FAR, farnesol]
- IC50 [1]: 85.9 ± 22.9 µM
- Specific activity, AKR1A [2]: 3.48 ± 0.32 nmol/mg/min

SMILES: C=CC(C)(O)CC/C=C(\C)CCC=C(C)C (stereo not drawn) [TNER, trans-nerolidol]
- Ki [3]: 2.41 ± 0.33 µM
- Ki [4]: 0.55 ± 0.11 µM
- IC50 [5]: 76.4 ± 52.1 µM
- IC50 [6, 8]: 51 µM
- IC50 [6]: 50.5 ± 13.5 µM
- Specific activity, AKR1A [2]: 3.71 ± 0.56 nmol/mg/min

SMILES: C=CC(C)(O)CC/C=C(/C)CCC=C(C)C (stereo not drawn) [CNER, cis-nerolidol]
- IC50 [6, 8]: 186 ± 125 µM
- IC50 ([7]; human, liver microsomes, probe midazolam): 66 µM
- IC50 [7]: 66.1 ± 30.5 µM
- Specific activity, AKR1A [2]: 3.86 ± 0.47 nmol/mg/min
